{"source": "patent US20060194883A1", "about": "“Mmp expression inhibitor” (EISAI CO., LTD, priority 2003, published 2006)", "key": {"p21": {"system": "p21", "assay": "CDK inhibitor expression by RT-PCR and Western blot in hepatic cancer cells", "format": "cell-based", "details": "10^−6 to 10^−4 M", "experimental": "(§1) To investigate the mechanism of inhibition of cell proliferation, genes involved in promoting the cell cycle were focused on, and changes caused by addition of menatetrenone in the amount of expression of CDK inhibitors p21, p27 and p16 which inhibit cyclin dependent kinase (CDK), an enzyme which promotes the cell cycle, were analyzed by the RT-PCR and Western blot methods. In this test, menatetrenone was added at concentrations of 0 M, 10^−6 M, 10^−5 M and 10^−4 M to HepG2, Huh7, Hep3B and HLE hepatic cancer cell lines, RNA was collected after 48 hours, and 1 μg of total RNA was subjected to RT-PCR to investigate expression of p21, p27 and p16. RT-PCR was performed on GAPDH (glyceraldehyde 3-phosphate dehydrogenase) as a control. In this test, menatetrenone was added at concentrations of 0 M, 10^−6 M, 10^−5 M and 10^−4 M to HepG2, Huh7, Hep3B and HLE hepatic cancer cell lines, proteins were extracted from the various cells, subjected to SDS-PAGE electrophoresis, blotted on PVP membranes and then incubated with p21 and p27 antibodies, and p21 and p27 protein expression was investigated by ECL."}, "p27": {"system": "p27", "assay": "CDK inhibitor expression by RT-PCR and Western blot in hepatic cancer cells", "format": "cell-based", "details": "10^−6 to 10^−4 M", "experimental": "as §1"}, "AP-1": {"system": "AP-1", "assay": "gel shift assay of transcription factor binding activity", "format": "cell-based", "details": "HepG2 nuclear proteins after 24 hours; 32P-labeled DNA probe", "experimental": "(§2) MMP have binding sites for transcription factors AP-1, Ets-1, Tcf/Lef and the like at common to their promoter regions and which are known to regulate MMP expression. Gel shift assay was performed to investigate whether the binding activity of transcription factors AP-1 and Tcf/Lef, which regulate MMP expression, is affected by addition of menatetrenone. In this test menatetrenone was added to HepG2 hepatic cancer cells, nuclear proteins were extracted after 24 hours and reacted with double-stranded DNA having binding sites for AP-1 and Tcf/Lef labeled with ^32P, and gel shift assay was performed. […] Reduction and shifting of the band was also seen with anti-c-fos antibodies (“S” in the Figure)."}, "Tcf/Lef": {"system": "Tcf/Lef", "assay": "gel shift assay of transcription factor binding activity", "format": "cell-based", "details": "HepG2 nuclear proteins after 24 hours; 32P-labeled DNA probe", "experimental": "as §2"}, "Ets-1": {"system": "Ets-1", "assay": "gene expression with TPA induction, RT-PCR", "format": "cell-based", "details": "HepG2; 20 nM TPA then menatetrenone", "experimental": "(§3) MMP and Ets-1, the expression of which is inhibited by menatetrenone, are known to be genes that are induced by 12-O-tetradecanoylphorbol-13-acetate (TPA) as well as uPA (urokinase plasminogen activator) and the like. In order to discover whether menatetrenone controls expression of genes activated by TPA, TPA was added to HepG2 cultured hepatic cancer cells at a concentration of 20 nM, menatetrenone was then added thereto, and RT-PCR and Western blot were performed to investigate whether expression of the aforementioned gene expression of which was induced by TPA was affected. […] On the other hand, the uPA receptor uPAR and the uPA inhibitor PAI were not affected."}, "MMP-1 [1]": {"system": "MMP-1", "assay": "gene expression with TPA induction, RT-PCR", "format": "cell-based", "details": "HepG2; 20 nM TPA then menatetrenone", "experimental": "as §3"}, "MMP-3 [2]": {"system": "MMP-3", "assay": "gene expression with TPA induction, RT-PCR", "format": "cell-based", "details": "HepG2; 20 nM TPA then menatetrenone", "experimental": "as §3"}, "MMP-7": {"system": "MMP-7", "assay": "gene expression with TPA induction, RT-PCR", "format": "cell-based", "details": "HepG2; 20 nM TPA then menatetrenone", "experimental": "as §3"}, "[3]": {"system": "uPA (urokinase plasminogen activator)", "assay": "gene expression with TPA induction, RT-PCR", "format": "cell-based", "details": "HepG2; 20 nM TPA then menatetrenone", "experimental": "as §3"}, "MMP-1 [4]": {"system": "MMP-1", "assay": "gene expression with TPA induction, Western blot", "format": "cell-based", "details": "HepG2, 20 nM TPA then menatetrenone", "experimental": "as §3"}, "MMP-3 [5]": {"system": "MMP-3", "assay": "gene expression with TPA induction, Western blot", "format": "cell-based", "details": "HepG2, 20 nM TPA then menatetrenone", "experimental": "as §3"}, "[6]": {"details": "cited from earlier work"}}, "data": [{"smiles": "CC(C)=CCC/C(C)=C/CC/C(C)=C/CC/C(C)=C/CC1=C(C)C(=O)c2ccccc2C1=O", "note": "[menatetrenone, 2-methyl-3-tetraprenyl-1,4-naphthoquinone]", "values": [{"measurement": "p21 expression", "setting": "p21; Hep3B cells", "result": "slight increase"}, {"measurement": "p21 mRNA expression", "setting": "p21; HepG2 cells, 48 hours", "result": "increases"}, {"measurement": "p21 expression", "setting": "p21; Huh7 cells", "result": "no changes"}, {"measurement": "p27 expression", "setting": "p27; Hep3B cells", "result": "no change"}, {"measurement": "p27 mRNA expression", "setting": "p27; HepG2 cells, 48 hours", "result": "increases"}, {"measurement": "p27 expression", "setting": "p27; Huh7 cells", "result": "no changes"}, {"measurement": "binding activity of AP-1", "setting": "AP-1", "result": "dose-dependently inhibited"}, {"measurement": "binding activity of Tcf/Lef", "setting": "Tcf/Lef", "result": "did not affect"}, {"measurement": "TPA-induced mRNA expression of Ets-1", "setting": "Ets-1", "result": "dose-dependently inhibited"}, {"measurement": "TPA-induced mRNA expression of MMP-1", "setting": "MMP-1 [1]", "result": "dose-dependently inhibited"}, {"measurement": "TPA-induced mRNA expression of MMP-3", "setting": "MMP-3 [2]", "result": "dose-dependently inhibited"}, {"measurement": "TPA-induced mRNA expression of MMP-7", "setting": "MMP-7", "result": "dose-dependently inhibited"}, {"measurement": "TPA-induced mRNA expression of uPA", "setting": "[3]", "result": "dose-dependently inhibited"}, {"measurement": "TPA-induced expression of MMP-1 at the protein level", "setting": "MMP-1 [4]", "result": "dose-dependently inhibited"}, {"measurement": "TPA-induced expression of MMP-3 at the protein level", "setting": "MMP-3 [5]", "result": "dose-dependently inhibited"}, {"measurement": "stability to light", "setting": "[6]", "result": "easily decomposed by light"}]}]}
